Data: the supplement of paper PMC10307832

The cell lines below were run with CC1=NN=C(O1)C2=NN=C(C=C2)N3CCC(CC3)OC4=C(C=CC(=C4)F)Cl + Cc1nc(NC(=O)N2CCC[C@H]2C(N)=O)sc1-c1ccnc(C(C)(C)C(F)(F)F)c1 [Alpelisib] (partner 2 µM) (assay: relative viability (nuclei count vs DMSO), 5 days (fraction); higher = more cells survive). Conditions: first compound 0.253 µM.
How it was run: (§1)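 Lung cancer cell lines were seeded in 1536-well plates and dosed by pin tool the next day, with either a single drug or a fixed anchor-drug dose combined with five library-drug doses (not always all listed) spaced in √10 steps. Five days later, one step fixed the cells and stained their nuclei (final 0.05% Triton X-100, 1% formaldehyde, 1 ug/ml Hoechst), and nuclei were counted on 4× images. Relative viability is the nuclei count in treated wells divided by the count in vehicle wells, and each value is the median of duplicate plates.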
Work on EKVX yielded a relative viability of 0.446.
LC-2-ad was tested, and the relative viability was 0.429.
Work on NCI-H1666 yielded a relative viability of 0.672.
Work on NCI-H1944 yielded a relative viability of 0.565.
NCI-H2085 showed a relative viability of 0.922.
For ABC-1, the relative viability was 0.729.
NCI-H358 gave a relative viability of 0.72.
For PC-3 [JPC-3], the relative viability was 0.915.

Same assay, conditions: first compound 0.8 µM
With EKVX the relative viability was 0.323.
Work on LC-2-ad yielded a relative viability of 0.371.
NCI-H1666 gave a relative viability of 0.738.
For NCI-H1944, the relative viability was 0.629.
NCI-H2085 gave a relative viability of 0.908.
ABC-1 showed a relative viability of 0.567.
Work on NCI-H358 yielded a relative viability of 0.829.
For PC-3 [JPC-3], the relative viability was 0.866.
Work on LOU-NH91 yielded a relative viability of 0.649.

Same assay, conditions: first compound 2.53 µM
EKVX was tested, and the relative viability was 0.363.
LC-2-ad showed a relative viability of 0.382.
NCI-H1666 gave a relative viability of 0.846.
In the case of NCI-H1944, the relative viability was 0.691.
In the case of NCI-H2085, the relative viability was 0.8.
Cell Line ABC-1 has a relative viability of 0.568.
NCI-H358 showed a relative viability of 0.778.
Cell Line PC-3 [JPC-3] has a relative viability of 0.914.
Cell Line LOU-NH91 has a relative viability of 0.713.

Same assay, conditions: first compound 8 µM
For EKVX, the relative viability was 0.462.
With LC-2-ad the relative viability was 0.341.
Cell Line NCI-H1666 has a relative viability of 0.792.
NCI-H1944 was tested, and the relative viability was 0.648.
NCI-H2085 showed a relative viability of 0.71.
For ABC-1, the relative viability was 0.642.
Work on NCI-H358 yielded a relative viability of 0.822.
PC-3 [JPC-3] gave a relative viability of 0.901.
LOU-NH91 was tested, and the relative viability was 0.726.

The cell lines below were run with CC(C)C[C@@H](C(=O)N[C@H](C(=O)OC1CCCC1)c1ccccc1)[C@H](O)C(=O)NO [Tosedostat] + COc1cc2c(Oc3ccc(NC(=O)C4(C(=O)Nc5ccc(F)cc5)CC4)cc3F)ccnc2cc1OCCCN1CCOCC1 [Foretinib] (partner 0.25 µM) in the same assay as above. Conditions: first compound 0.02 µM.
How it was run: as §1
In the case of EKVX, the relative viability was 0.649.
With LC-2-ad the relative viability was 0.987.
NCI-H1666 showed a relative viability of 1.08.
Work on NCI-H1944 yielded a relative viability of 0.984.
Cell Line NCI-H2085 has a relative viability of 0.919.
ABC-1 gave a relative viability of 1.23.
In the case of NCI-H358, the relative viability was 0.872.
PC-3 [JPC-3] showed a relative viability of 1.01.
With LOU-NH91 the relative viability was 0.981.

Same assay, conditions: first compound 0.06325 µM
For EKVX, the relative viability was 0.759.
Work on LC-2-ad yielded a relative viability of 0.939.
Work on NCI-H1666 yielded a relative viability of 1.01.
NCI-H1944 showed a relative viability of 0.787.
In the case of NCI-H2085, the relative viability was 0.971.
ABC-1 showed a relative viability of 0.971.
For NCI-H358, the relative viability was 0.634.
PC-3 [JPC-3] was tested, and the relative viability was 1.02.
With LOU-NH91 the relative viability was 0.955.

Same assay, conditions: first compound 0.2 µM
In the case of EKVX, the relative viability was 0.795.
For LC-2-ad, the relative viability was 0.941.
For NCI-H1666, the relative viability was 0.945.
Work on NCI-H1944 yielded a relative viability of 0.864.
NCI-H2085 showed a relative viability of 0.915.
With ABC-1 the relative viability was 1.02.
NCI-H358 gave a relative viability of 0.473.
PC-3 [JPC-3] gave a relative viability of 0.997.
LOU-NH91 showed a relative viability of 0.882.

Same assay, conditions: first compound 0.6325 µM
Work on EKVX yielded a relative viability of 0.736.
LC-2-ad gave a relative viability of 0.842.
In the case of NCI-H1666, the relative viability was 0.899.
For NCI-H1944, the relative viability was 0.822.
NCI-H2085 gave a relative viability of 0.965.
ABC-1 showed a relative viability of 1.18.
Cell Line NCI-H358 has a relative viability of 0.289.
PC-3 [JPC-3] showed a relative viability of 0.778.
LOU-NH91 gave a relative viability of 0.887.

Same assay, conditions: first compound 2 µM
Cell Line EKVX has a relative viability of 0.729.
Work on LC-2-ad yielded a relative viability of 0.806.
NCI-H1666 showed a relative viability of 1.05.
Cell Line NCI-H1944 has a relative viability of 0.773.
NCI-H2085 was tested, and the relative viability was 0.875.
ABC-1 was tested, and the relative viability was 1.11.
NCI-H358 was tested, and the relative viability was 0.347.
PC-3 [JPC-3] was tested, and the relative viability was 0.65.
With LOU-NH91 the relative viability was 0.871.

What follows are cell lines tested with CC(C)C[C@@H](C(=O)N[C@H](C(=O)OC1CCCC1)c1ccccc1)[C@H](O)C(=O)NO [Tosedostat] + NC(=O)Nc1cc(-c2cccc(F)c2)sc1C(=O)N[C@H]1CCCNC1 [AZD7762] (partner 0.2 µM) in the same assay as above. Conditions: first compound 0.02 µM.
How it was run: as §1
EKVX was tested, and the relative viability was 0.821.
In the case of LC-2-ad, the relative viability was 0.929.
Work on NCI-H1666 yielded a relative viability of 0.878.
NCI-H1944 gave a relative viability of 0.659.
For ABC-1, the relative viability was 1.2.
NCI-H358 was tested, and the relative viability was 0.71.
PC-3 [JPC-3] showed a relative viability of 0.752.
For LOU-NH91, the relative viability was 0.805.

Same assay, conditions: first compound 0.06325 µM
EKVX gave a relative viability of 0.71.
For LC-2-ad, the relative viability was 0.85.
With NCI-H1666 the relative viability was 0.919.
NCI-H1944 showed a relative viability of 0.494.
Work on NCI-H2085 yielded a relative viability of 1.03.
Work on NCI-H358 yielded a relative viability of 0.471.
In the case of PC-3 [JPC-3], the relative viability was 0.747.
In the case of LOU-NH91, the relative viability was 0.862.

Same assay, conditions: first compound 0.2 µM
For EKVX, the relative viability was 0.747.
LC-2-ad was tested, and the relative viability was 0.873.
NCI-H1666 was tested, and the relative viability was 1.02.
Work on NCI-H1944 yielded a relative viability of 0.501.
NCI-H2085 was tested, and the relative viability was 1.05.
ABC-1 was tested, and the relative viability was 0.755.
For NCI-H358, the relative viability was 0.434.
For PC-3 [JPC-3], the relative viability was 0.746.
LOU-NH91 showed a relative viability of 0.802.

Same assay, conditions: first compound 0.6325 µM
EKVX was tested, and the relative viability was 0.761.
LC-2-ad showed a relative viability of 0.8.
In the case of NCI-H1666, the relative viability was 0.912.
NCI-H1944 was tested, and the relative viability was 0.437.
For NCI-H2085, the relative viability was 0.973.
ABC-1 was tested, and the relative viability was 0.822.
For NCI-H358, the relative viability was 0.317.
PC-3 [JPC-3] was tested, and the relative viability was 0.647.
For LOU-NH91, the relative viability was 0.745.

Same assay, conditions: first compound 2 µM
EKVX was tested, and the relative viability was 0.657.
LC-2-ad showed a relative viability of 0.918.
NCI-H1666 showed a relative viability of 0.907.
For NCI-H1944, the relative viability was 0.453.
With NCI-H2085 the relative viability was 0.965.
ABC-1 was tested, and the relative viability was 0.732.
With NCI-H358 the relative viability was 0.34.
PC-3 [JPC-3] showed a relative viability of 0.54.
In the case of LOU-NH91, the relative viability was 0.624.

Each cell line was assayed with CC(C)C[C@@H](C(=O)N[C@H](C(=O)OC1CCCC1)c1ccccc1)[C@H](O)C(=O)NO [Tosedostat] + Cc1cc(Nc2cc(N3CCN(C)CC3)nc(Sc3ccc(NC(=O)C4CC4)cc3)n2)n[nH]1 [Tozasertib] (partner 0.1 µM) in the same assay as above. Conditions: first compound 0.02 µM.
How it was run: as §1
For EKVX, the relative viability was 0.401.
LC-2-ad gave a relative viability of 0.472.
Work on NCI-H1666 yielded a relative viability of 0.639.
NCI-H1944 gave a relative viability of 0.244.
NCI-H2085 was tested, and the relative viability was 0.695.
ABC-1 gave a relative viability of 0.17.
NCI-H358 showed a relative viability of 0.0914.
For PC-3 [JPC-3], the relative viability was 0.892.
With LOU-NH91 the relative viability was 0.686.

Same assay, conditions: first compound 0.06325 µM
Work on EKVX yielded a relative viability of 0.511.
LC-2-ad was tested, and the relative viability was 0.454.
NCI-H1666 gave a relative viability of 0.711.
Cell Line NCI-H1944 has a relative viability of 0.244.
Work on NCI-H2085 yielded a relative viability of 0.695.
ABC-1 was tested, and the relative viability was 0.194.
NCI-H358 was tested, and the relative viability was 0.1.
PC-3 [JPC-3] was tested, and the relative viability was 0.954.
With LOU-NH91 the relative viability was 0.699.

Same assay, conditions: first compound 0.2 µM
EKVX gave a relative viability of 0.392.
LC-2-ad was tested, and the relative viability was 0.403.
Cell Line NCI-H1666 has a relative viability of 0.541.
NCI-H1944 showed a relative viability of 0.23.
Cell Line NCI-H2085 has a relative viability of 0.784.
Work on ABC-1 yielded a relative viability of 0.137.
With NCI-H358 the relative viability was 0.0977.
Cell Line PC-3 [JPC-3] has a relative viability of 0.87.
Cell Line LOU-NH91 has a relative viability of 0.665.

Same assay, conditions: first compound 0.6325 µM
EKVX was tested, and the relative viability was 0.358.
For LC-2-ad, the relative viability was 0.297.
For NCI-H1666, the relative viability was 0.726.
Cell Line NCI-H1944 has a relative viability of 0.256.
Work on NCI-H2085 yielded a relative viability of 0.909.
In the case of ABC-1, the relative viability was 0.118.
NCI-H358 showed a relative viability of 0.0822.
PC-3 [JPC-3] gave a relative viability of 0.802.
LOU-NH91 gave a relative viability of 0.574.

Same assay, conditions: first compound 2 µM
Work on EKVX yielded a relative viability of 0.311.
Work on LC-2-ad yielded a relative viability of 0.281.
In the case of NCI-H1666, the relative viability was 0.623.
NCI-H1944 gave a relative viability of 0.22.
NCI-H2085 was tested, and the relative viability was 0.838.
ABC-1 gave a relative viability of 0.17.
With NCI-H358 the relative viability was 0.0804.
Work on PC-3 [JPC-3] yielded a relative viability of 0.571.
LOU-NH91 was tested, and the relative viability was 0.917.
